# Measured values: paper PMC7848789 (SLAS discovery : advancing life sciences R & D, 2019)
# Where a SMILES comes first, the peptide text is derived from it.
# What was measured:
# [1] = molecular target: Recombinant human HDAC1 enzyme (Homo sapiens, UniProt Q13547); assay: HDAC-Glo I/II enzymatic assay; type: biochemical; conditions: for Activity outcome in HDAC1 enzymatic HDAC-Glo I/II assay: qHTS, 11 concentrations, active = CRC class 1 and 2 and AUC>100; for Emax: read-out: % Efficacy, HDAC-Glo: HDAC1
# Recombinant human HDAC1 enzyme, sequence (Q13547 whole entry): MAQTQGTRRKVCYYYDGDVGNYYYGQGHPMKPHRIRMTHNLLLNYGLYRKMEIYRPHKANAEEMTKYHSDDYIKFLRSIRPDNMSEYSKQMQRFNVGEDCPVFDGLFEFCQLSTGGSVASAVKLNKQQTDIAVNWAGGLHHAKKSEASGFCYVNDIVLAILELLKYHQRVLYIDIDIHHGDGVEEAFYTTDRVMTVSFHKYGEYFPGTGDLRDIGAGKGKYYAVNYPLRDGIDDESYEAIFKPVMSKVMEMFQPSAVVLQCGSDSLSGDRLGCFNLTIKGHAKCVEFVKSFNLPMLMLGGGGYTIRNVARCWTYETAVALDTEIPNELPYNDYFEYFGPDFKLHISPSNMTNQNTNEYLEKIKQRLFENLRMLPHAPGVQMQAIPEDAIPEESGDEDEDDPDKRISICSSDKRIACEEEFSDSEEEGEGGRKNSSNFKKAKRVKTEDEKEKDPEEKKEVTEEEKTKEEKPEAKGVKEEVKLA
# [2] = system: HDAC class I and II activity in HEK293T cells; assay: HDAC-Glo I/II cellular assay in HEK293T cells; type: cell-based; conditions: qHTS, 1 hour, active = CRC class 1 and 2 and AUC>100
# HDAC1–86b = HDAC1–86b (Homo sapiens, UniProt Q13547); assay: HDAC1-86b SplitLuc CETSA in HEK293T cells; type: binding; conditions: for Activity outcome in SplitLuc CETSA (thermal stabilization of HDAC1–86b): 49°C, active = CRC class 1 and 2 and AUC>50; for Average IC50 ± SD (% Efficacy), SplitLuc CETSA: HEK293T: thermal stabilization at 49°C, n=2
# HDAC1–86b, sequence (Q13547 whole entry, the tested form may be a part): as the sequence (Q13547 whole entry) above
# [3] = molecular target: HDAC1-NanoLuc fusion protein (Homo sapiens, UniProt Q13547); assay: HDAC1 NanoBRET target engagement assay in HEK293T cells; type: binding; conditions: for Average IC50 ± SD, NanoBRET: HEK293T: n=2; for Average IC50 ± SD, NanoBRET: HEK293T / Activity outcome in NanoBRET (HDAC1 engagement, displacement of SAHA tracer): HEK293T; for Activity outcome in NanoBRET (HDAC1 engagement, displacement of SAHA tracer): 28.9 μM to 0.49 nM, active = CRC class 1 and 2 and AUC>100; for Emax: read-out: % Efficacy, NanoBRET: HEK293T
# HDAC1-NanoLuc fusion protein, sequence (Q13547 whole entry, the tested form may be a part): as the sequence (Q13547 whole entry) above
# HEK293T cells = assay: CellTiter-Glo acute cell death counterscreen; type: cell-based; conditions: 1 hour; at the highest concentration tested of 45.8 μM
# [4] = system: HDAC class I and II activity in HeLa cells; assay: HDAC-Glo I/II cellular assay in HeLa cells; type: cell-based; conditions: qHTS; 1 hour; active = CRC class 1 and 2 and AUC>100
SMILES,Activity outcome in HDAC1 enzymatic HDAC-Glo I/II assay [1],Activity outcome in HEK293T cellular HDAC-Glo I/II assay [2],IC50 [1] [µM],Emax [1] [%],also measured
NC(=O)c1cccc2[nH]c(-c3ccc([C@@H]4CCCN4)cc3F)nc12 [A-966492],active,–,–,–,–
Cn1cc(C(=O)Cc2ccccc2)cc1/C=C/C(=O)NO [APHA Compound 8],active,either inactive or did not pass the activity cutoff,–,–,–
CCCSc1ccc2nc(NC(=O)OC)[nH]c2c1 [Albendazole],–,–,7.7 ± 0.8,93,–
CCC(=O)CCCCC[C@@H]1NC(=O)[C@H]2CCCCN2C(=O)[C@H]([C@@H](C)CC)NC(=O)[C@H](Cc2cn(OC)c3ccccc23)NC1=O [Apicidin],most potent,most potent,–,–,Activity outcome in SplitLuc CETSA (thermal stabilization of HDAC1–86b) (HDAC1–86b): most potent
CNC(=O)c1ccccc1Sc1ccc2c(/C=C/c3ccccn3)n[nH]c2c1 [Axitinib],–,–,3 ± 0.2,90,"Average IC50 ± SD (% Efficacy), SplitLuc CETSA: HEK293T (HDAC1–86b): Inactive; Average IC50 ± SD, NanoBRET: HEK293T [3]: Inactive"
COc1ccc(-c2nc(N3CCOCC3)c3sc(CN(C)c4ncc(C(=O)NO)cn4)cc3n2)cn1 [CUDC-907],most potent,most potent,–,–,Activity outcome in SplitLuc CETSA (thermal stabilization of HDAC1–86b) (HDAC1–86b): most potent
CN(C)C(=O)COC(=O)Cc1ccc(OC(=O)c2ccc(NC(=N)N)cc2)cc1 [Camostat],–,–,1.1 ± 0.1,95,"Average IC50 ± SD (% Efficacy), SplitLuc CETSA: HEK293T (HDAC1–86b): Inactive; IC50 [3]: 8.2 ± 1.4 µM; Activity outcome in NanoBRET (HDAC1 engagement, displacement of SAHA tracer) [3]: weakly engage HDAC1; Emax [3]: 90%"
CCS(=O)(=O)N1CCN(c2ccc(Nc3ncc(C(N)=O)c(NC4CC4)n3)cc2)CC1 [Cerdulatinib],–,–,–,–,Acute effect on HEK293T cell viability (CellTiter-Glo) (HEK293T cells): reduced HEK293T cell viability
Nc1cc(F)ccc1NC(=O)c1ccc(CNC(=O)/C=C/c2cccnc2)cc1 [Chidamide],active,relatively weak activity (below the activity cutoff),–,–,Activity outcome in HeLa cellular HDAC-Glo I/II assay [4]: relatively weak activity (below the activity cutoff)
O=C(/C=C/c1ccc(CN(CCO)CCc2c[nH]c3ccccc23)cc1)NO [Dacinostat],–,most potent,–,–,–
O=S(=O)(O)c1ccc2[nH]c(-c3ccccc3)nc2c1 [Ensulizole],–,–,2.4 ± 0.3,99,–
Nc1ccccc1NC(=O)c1ccc(CNC(=O)OCc2cccnc2)cc1 [Entinostat],active,relatively weak activity (below the activity cutoff),–,–,Activity outcome in HeLa cellular HDAC-Glo I/II assay [4]: relatively weak activity (below the activity cutoff)
O=C(CCCCCCSc1ccc2ccccc2c1)NO [HNHA],inactive,inactive,–,–,–
O=C(NO)c1ccc(CC(=O)N(CCO)c2ccccc2)cc1 [HPOB],weak activity,weak activity,–,–,"Activity outcome in SplitLuc CETSA (thermal stabilization of HDAC1–86b) (HDAC1–86b): did not pass the activity cutoff; Activity outcome in NanoBRET (HDAC1 engagement, displacement of SAHA tracer) [3]: did not pass the activity cutoff"
Cc1oncc1C(=O)Nc1ccc(C(F)(F)F)cc1 [Leflunomide],–,–,3 ± 0.2,96,"Average IC50 ± SD (% Efficacy), SplitLuc CETSA: HEK293T (HDAC1–86b): Inactive; Average IC50 ± SD, NanoBRET: HEK293T [3]: Inactive"
N=C(N)c1ccc2cc(OC(=O)c3ccc(N=C(N)N)cc3)ccc2c1 [Nafamostat],–,–,1.3 ± 0.1,97,"Average IC50 ± SD (% Efficacy), SplitLuc CETSA: HEK293T (HDAC1–86b): Inactive; IC50 [3]: 11.8 ± 2.9 µM; Activity outcome in NanoBRET (HDAC1 engagement, displacement of SAHA tracer) [3]: weakly engage HDAC1; Emax [3]: 37%"
CCCCN(Cc1ccc(C(=O)NO)cc1)C(=O)Nc1ccccc1 [Nexturastat A],–,–,–,–,"Activity outcome in NanoBRET (HDAC1 engagement, displacement of SAHA tracer) [3]: engagement"

SMILES,Activity outcome in HDAC1 enzymatic HDAC-Glo I/II assay [1],Activity outcome in HEK293T cellular HDAC-Glo I/II assay [2],IC50 [1] [µM],Emax [1] [%],also measured
O=C(Nc1ccc([N+](=O)[O-])cc1Cl)c1cc(Cl)ccc1O [Niclosamide],–,–,2.8 ± 0.01,99,"Average IC50 ± SD (% Efficacy), SplitLuc CETSA: HEK293T (HDAC1–86b): Inactive; Average IC50 ± SD, NanoBRET: HEK293T [3]: Inactive"
CC(=O)Oc1ccccc1C(=O)Nc1ncc([N+](=O)[O-])s1 [Nitazoxanide],–,–,5.1 ± 0.3,95,–
CC(C)C(=O)SCCCCCCC(=O)Nc1nc(-c2ccccc2)cs1 [PTACH],inactive,showed HDAC inhibition,–,–,"Activity outcome in NanoBRET (HDAC1 engagement, displacement of SAHA tracer) [3]: engagement"
O=C(CCCCCCC(=O)Nc1cccnc1)NO [Pyroximide],–,inactive,–,–,–
Cn1cc(CNCC2CCN(c3ncc(C(=O)NO)cn3)CC2)c2ccccc21 [Quisinostat],most potent,most potent,–,–,Activity outcome in SplitLuc CETSA (thermal stabilization of HDAC1–86b) (HDAC1–86b): most potent
COc1cc(OC)c2c(=O)[nH]c(-c3cc(C)c(OCCO)c(C)c3)nc2c1 [RVX-208],active,–,–,–,–
Oc1ccc(/C=C/c2cc(O)cc(O)c2)cc1 [Resveratrol],–,–,1.5 ± 0.01,95,"Average IC50 ± SD (% Efficacy), SplitLuc CETSA: HEK293T (HDAC1–86b): Inactive"
O=C(Nc1cccc(Cl)c1)Nc1ncc(CCNc2ncnc3ccsc23)s1 [SNS-314],–,–,–,–,"Acute effect on HEK293T cell viability (CellTiter-Glo) (HEK293T cells): acute cell death; IC50 [3]: 0.549 µM; Activity outcome in NanoBRET (HDAC1 engagement, displacement of SAHA tracer) [3]: engagement"
Cc1ccc(NC(=O)CCCCCC(=O)Nc2ccccc2N)cc1 [TC-H-106],active,relatively weak activity (below the activity cutoff),–,–,Activity outcome in HEK293T cellular HDAC-Glo I/II assay ([2]; listed as TC-H 106): either inactive or did not pass the activity cutoff; Activity outcome in HeLa cellular HDAC-Glo I/II assay [4]: relatively weak activity (below the activity cutoff)
CC(=O)Nc1ccc(C(=O)Nc2ccccc2N)cc1 [Tacedinaline],active,–,–,–,Activity outcome in HeLa cellular HDAC-Glo I/II assay [4]: relatively weak activity (below the activity cutoff)
O=C(Nc1ncc([N+](=O)[O-])s1)c1cccs1 [Tenonitrozole],–,–,1.7 ± 0.01,93,–
c1ccc2[nH]c(-c3cscn3)nc2c1 [Thiabendazole],–,–,3.8 ± 0.6,90,"Average IC50 ± SD (% Efficacy), SplitLuc CETSA: HEK293T (HDAC1–86b): Inactive; Average IC50 ± SD, NanoBRET: HEK293T [3]: Inactive"
"O=C(CCCCC[C@@H]1NC(=O)[C@H]2CCCCN2C(=O)[C@H](Cc2ccccc2)NC(=O)[C@H](Cc2ccccc2)NC1=O)C1CO1 (some centres unmarked) [Trapoxin A] (HELM PEPTIDE1{F.F.[O=C([C@H]1CCCCN1[*:1])[*:2]].[O=C(CCCCC[C@H](N[*:1])C(=O)[*:2])C1CO1]}$PEPTIDE1,PEPTIDE1,1:R1-4:R2$$$V2.0)",most potent,most potent,–,–,Activity outcome in SplitLuc CETSA (thermal stabilization of HDAC1–86b) (HDAC1–86b): most potent
O=C(CCCCCCC(=O)Nc1ccc([C@H]2O[C@@H](CSc3nc(-c4ccccc4)c(-c4ccccc4)o3)C[C@@H](c3ccc(CO)cc3)O2)cc1)NO [Tubacin],weak activity,weak activity,–,–,"Activity outcome in SplitLuc CETSA (thermal stabilization of HDAC1–86b) (HDAC1–86b): did not pass the activity cutoff; Activity outcome in NanoBRET (HDAC1 engagement, displacement of SAHA tracer) [3]: did not pass the activity cutoff"
CN1CCc2c(c3ccccc3n2Cc2ccc(C(=O)NO)cc2)C1 [Tubastatin A],weak activity,weak activity,–,–,"Activity outcome in SplitLuc CETSA (thermal stabilization of HDAC1–86b) (HDAC1–86b): inactive; Activity outcome in NanoBRET (HDAC1 engagement, displacement of SAHA tracer) [3]: inactive"
CCCCNNC(=O)c1ccc(Br)cc1 [UF 010],weak activity,weak activity,–,–,"Activity outcome in SplitLuc CETSA (thermal stabilization of HDAC1–86b) (HDAC1–86b): did not pass the activity cutoff; Activity outcome in NanoBRET (HDAC1 engagement, displacement of SAHA tracer) [3]: did not pass the activity cutoff"
